Experimental data from publication PMC8698759, “Gold(I) Complexes Bearing Alkylated 1,3,5-Triaza-7-phosphaadamantane Ligands as Thermoresponsive Anticancer Agents in Human Colon Cells” (Biomedicines, 2021).
Read-outs that look alike come from different tables or passages of the source.

Experiments:
Human fibroblast cells = assay: MTT cytotoxicity assay on fibroblasts; assay type: cell-based; conditions: for fibroblasts viability when treated at the IC50 value in Caco-2: 3a 2.5 µM, 3b 5.1 µM, 2a 12.3 µM, 2b 10.5 µM; for Selectivity Index (SI): IC50 fibroblasts/IC50 Caco-2; for IC50: MTT, mean ± SE
Method: (§1) Human Caco-2 cell line (TC7 clone) was kindly provided by Dr. Edith Brot-Laroche (Université Pierre et Marie Curie-Paris 6, UMR S 872, Les Cordeliers, France). Human fibroblast cells were kindly provided by Dr. Julio Montoya (Unidad de Bioquímica, Facultad de Veterinaria, Universidad de Zaragoza, Spain). Caco-2 cells (passages 40–70) and fibroblasts (passages 10–30) were maintained in a humidified atmosphere of 5% CO2 at 37 °C. Cells were grown in Dulbecco’s Modified Eagles medium (DMEM) (Gibco Invitrogen, Paisley, UK) supplemented with 20% fetal bovine serum (FBS), 1% non-essential amino acids, 1% penicillin (1000 U/mL), 1% streptomycin (1000 μg/mL) and 1% amphotericin (250 U/mL). The cells were passaged enzymatically with 0.25% trypsin-1 mM EDTA. Caco-2 cells were sub-cultured on 25 cm^2 plastic flasks at a density of 1.2 × 10^4 cells/cm^2, while fibroblasts were sub-cultured on 75 cm^2 plastic flasks at a density of 1 × 10^4 cells/cm^2. Culture medium was replaced every 2 days.
(§2) Gold complex was diluted in dimethyl sulfoxide (DMSO) to a stock solution at 20 mM and then re-diluted to a working solution at 2.5 mM before diluting it in cell culture medium to treat cells at desired concentrations.
(§3) For cytotoxicity screening assays, Caco-2 cells were seeded in 96-well plates at a density of 4 × 10^3 cells/well. Culture medium was replaced with medium containing drug panel 24 h post-seeding and cells were incubated for 72 h. In fibroblasts, culture medium containing metal gold complexes was added 10 days post-seeding. Antiproliferative effect was measured with MTT assay as previously described by Mármol et al.. Absorbance at 540/620 nm was measured with SPECTROstar Nano (BMG Labtech). To determine the selectivity index (SI) the IC50 value in fibroblasts was divided by IC50 value in Caco-2, obtaining a ratio cancerous/normal cells toxicity.

Caco-2 cells [1] = assay: Intracellular ROS levels, dichlorofluorescein assay; assay type: cell-based, human; conditions: for intracellular ROS levels, 1 h and 3 h: Caco-2, treated for 1 h and 3 h at IC50 values; for intracellular ROS levels, 24 h: Caco-2, treated for 24 h with IC50 values
Method: Caco-2 cells were seeded in 96-wells plate at a density of 4 × 10^3 cells/well and intracellular ROS levels were determined with the dichlorofluorescein assay. Cells were exposed to drug panel for 1, 3 and 24 h and then incubated with 20 µM 2′-7′-dichlorofluorescein diacetate (DCFH-DA) (Merck KGaA, Darmstadt, Germany) in DMEM. The generation of oxidised derivative DCF was monitored by measuring the increase of fluorescence for 1 h, at an emission wavelength of 520 nm and excitation of 485 nm, with a FLUOstar Omega (BMG Labtech, Ortenberg, Germany) multiplate reader. Results were expressed as percentage of fluorescence respect to control, considering fluorescence intensity as a reflection of intracellular ROS levels.

Caco-2/TC7 cells = assay: MTT cytotoxicity / antiproliferative assay on Caco-2/TC7 cells; assay type: cell-based, human
Method: as §1, with “Human” for “Human Caco-2 cell line (TC7 clone) was kindly provided by Dr. Edith Brot-Laroche (Université Pierre et Marie Curie-Paris 6, UMR S 872, Les Cordeliers, France). Human”, “The cells were passaged enzymatically with 0.25% trypsin-1 mM EDTA.” left out
as §2
The influence of hyperthermia was studied by incubating cells at 40 °C for 1 h immediately after treating them with the gold complexes.
as §3, with “Absorbance at 540/620 nm was measured with SPECTROstar Nano (BMG Labtech).” left out

Caco-2 cells [2] = assay: Propidium iodide staining of DNA content and cell cycle analysis; assay type: cell-based, human; conditions: 3a 5.0 µM, 3b 10.2 µM; for cells in G0-G1 phase, 40 °C / cells in G2-M phase, 40 °C / cells in S phase, 40 °C: Caco-2, 1 h at 40 °C plus 47 h at 37 °C; for cell cycle progression: Caco-2, 48 h; for cells in G0-G1 phase, 37 °C / cells in G2-M phase, 37 °C / cells in S phase, 37 °C: Caco-2, 48 h at 37 °C
Method: Caco-2 cells were seeded in 25 cm^2 flasks at a density of 1 × 10^4 cells/cm^2 and 24 h post-seeding, were exposed to drug panel for 48 h. Cells were fixed as described by Sánchez-de-Diego et al. before staining them with 50 μg/mL PI solution.

[3] = test system: caspase-3 in Caco-2 cells; assay: Determination of active caspase-3 by flow cytometry; assay type: cell-based, human; conditions: Caco-2, 48 h; 3a 5.0 µM, 3b 10.2 µM
Method: Caco-2 cells were seeded in 75 cm^2 flask at a density of 1 × 10^4 cells/cm^2 and, 24 h later, exposed to drug panel for 48 h. Then cells were collected and processed following instructions by Sánchez-de-Diego et al. Finally, 50 µL of every sample were incubated with 5 µL anti-active caspase-3 (BD Pharmigen, Clone C92-605) and 5 µL p53 antibody (Miltenyi, Clone REA609).

[4] = Distribution coefficient (logD7.4), shake-flask n-octanol/buffered water; assay type: physicochemical; conditions: n-octanol/phosphate buffered saline pH 7.4, shake-flask
Method: The n-octanol-water coefficients of the phosphane derivatives were determined as previously reported using a shake-flask method. Briefly: Buffered-saline distilled water (100 mL, phosphate buffer [PO4^3−] = 10 mM, [NaCl] = 0.15 M, pH 7.4) and n-octanol (100 mL) were shaken together for 72 h to allow saturation of both phases. 1 mg of the complexes was dissolved in 5 mL of the aqueous phase and 5 mL of the organic phase were added, mixing for 10 min. The concentration of the complexes in the organic and aqueous phases were then determined using UV absorbance spectroscopy. LogD7.4 = log{[compound(organic phase)]/[compound(aqueous phase)]}.
The lipophilicity can be measured by the partition coefficient water/n-octanol, logD, by experimental procedures such as the shake flask method, which affords the distribution of the drug between an equal amount of n-octanol and water (or buffered aqueous solution).

[5] = 37 °C values rounded, read-out: IC50 values in Caco-2
[6] = 72 h, MTT, 37 °C, mean ± SE, read-out: IC50 Caco-2/TC7 37 °C
[7] = read-out: IC50 Caco-2/TC7 40 °C, 72 h, MTT, 1 h at 40 °C immediately after treatment (hyperthermia), mean ± SE

Row | SMILES | fibroblasts viability when treated at the IC50 value in Caco-2 (Human fibroblast cells) | Selectivity Index (SI) (Human fibroblast cells) | IC50 (Human fibroblast cells) | intracellular ROS levels, 1 h and 3 h (Caco-2 cells [1]) | intracellular ROS levels, 24 h (Caco-2 cells [1]) | IC50 (Caco-2/TC7 cells; [5]) | IC50 (Caco-2/TC7 cells; [6]) | IC50 (Caco-2/TC7 cells; [7]) | cells in G0-G1 phase, 40 °C (Caco-2 cells [2]) | cells in G2-M phase, 40 °C (Caco-2 cells [2]) | cells in S phase, 40 °C (Caco-2 cells [2]) | cell cycle progression (Caco-2 cells [2]) | cells in G0-G1 phase, 37 °C (Caco-2 cells [2]) | cells in G2-M phase, 37 °C (Caco-2 cells [2]) | cells in S phase, 37 °C (Caco-2 cells [2]) | caspase-3 activation (cells with active caspase-3) [3] | logD7.4 [4]
1 | CCCCCCCC[N+]12CN3CN(C1)C[P+]([Au-][S]c1ccccn1)(C3)C2.[I-] [Complex 3a, [Au(C5H5NS)(PTA-CH2(CH2)6CH3)]I] | did not compromise fibroblasts viability | 4.86 | 12.11 ± 0.11 µM | did not bring significant changes | significant increase | 2.5 µM | 2.49 ± 0.31 µM | 2.05 ± 0.32 µM | 63.7% | 27.78% | 8.56% | increasing amount of cells in G0-G1 phase | 43.3% | 14.4% | 42.4% | could induce caspase-3 activation | 0.35
2 | FC(F)(F)C(F)(F)C(F)(F)C(F)(F)C(F)(F)C(F)(F)CC[N+]12CN3CN(C1)C[P+]([Au-][S]c1ccccn1)(C3)C2.O=S(=O)([O-])C(F)(F)F [Complex 3b, [Au(C5H5NS)(PTA-CH2CH2(CF2)5CF3)](TfO)] | did not compromise fibroblasts viability | 2.51 | 12.8 ± 1.48 µM | did not bring significant changes | significant increase | 5.1 µM | 5.11 ± 1.25 µM | 4.26 ± 0.34 µM | 48.1% | 17.2% | 34.7% | increasing amount of cells in G0-G1 phase | 41.4% | 12.5% | 46.1% | could induce caspase-3 activation | 0.44
